Source: patent publication US11738095B2, “Cyanine-containing compounds for cancer imaging and treatment” (Emory University, priority 2007, dated 2023)
Read-outs that look alike come from different tables or passages of the source.

Legend:
[1] = Description: Mice were injected with 20 μg/Kg of IR783 and IR780 (which was 100× of the imaging dose which was 0.2 μg/Kg) and results were compared for a 28 day period. […] Zero grams means the mouse died. ICG is a FDA approved dye used for several diagnostic purposes. ICG is considered to be nontoxic. ICG is used here as a measure of the toxicity of the tested compounds.
Toxicity test of dye based on body weight gained during the treatment period from 0 to 14 days.

[2] = FDA approved dye; cited from earlier work
[3] = system: human cancer cells: ARCaPM, C4-2, PC-3, HepG2, MCF-7, RCC, T-24, HeLa, K562, H358; test: uptake of IR780 by human cancer cells in culture (FIG. 10); type: cell-based; settings: 20 uM, 30 minutes, confocal microscope
Description: The uptake of IR780 by human cancer cells in culture was also studied. […] All the cells were cultured with 20 uM IR-780 in basal media (T-medium with 5% fetal bovine serum and 1% antibiotics) for 30 minutes and were imaged under confocal microscope.

[4] = system: normal prostate fibroblasts (NPF), normal prostate epithelial cells (NPE), marrow stromal cells BMC; test: uptake of IR780 by normal human cells in culture (FIG. 10); type: cell-based
ARCaPM cells = test: confocal imaging of IR780 uptake and localization in ARCaPM cells (FIG. 11, 12); type: cell-based, human
Description: In FIG. 11, ARCaPM Cells were plated on live-cell imaging chambers from World Precision Instrument (Sarasota, Fla.) overnight. Cells were treated with IR-780 with different concentrations and were imaged using a Perkin-Elmer Ultraview ERS spinning disc confocal microscope. This system was mounted on a Zeiss Axiovert 200 m inverted microscope equipped with a 37° C. stage warmer, incubator, and CO2 perfusion. A x63 or x100 Zeiss oil objective (numerical aperture, 1.4) was used for all images and a Z-stack was created using the attached piezoelectric z-stepper motor. The 633 nm laser line of an […] (set at 60% power) was used to excite the IR-780 organic dye. For each comparison, the exposure time and laser intensity was kept identical for accurate intensity measurement. Pixel intensity was quantitated using Metamorph 6.1 (Universal Imaging, Downingtown, Pa.) and the mean pixel intensity was generated as grey level using the Region Statistics feature on the software.

[5] = system: subcutaneous HepG2, C4-2, H358, HeLa, MCF-7 and ARCaPM tumors; test: imaging of subcutaneous human tumors in mice with IR780 (FIG. 13); type: in vivo, mouse; settings: 5 n mol tail vein, tumors 0.5-1.0 cm
Description: Subcutaneous HepG2 (human liver cancer), C4-2 (human prostate androgen-independent and metastatic cancer), H358 (human lung cancer), HeLa (human cervical cancer), MCF-7 (human breast cancer) and ARCaPM (a highly bone and soft tissue metastatic human prostate cancer) cancers were established in live mice prior to the administration of IR-780. The tumor xenografts were measured about 0.5-1.0 cm in diameter at the time of imaging. 5 n mol of IR-780 were given to mice through tail vein and imaged using Kodak multimodal-imaging system. The distribution of IR-780 in tumor tissues was conformed by imaging of frozen sections under confocal microscope. The histopathology of the tumor was confirmed by H/E staining of the frozen tissue specimens and DAPI stained cell nuclei.

[6] = tail vein injection, data not shown
[7] = system: human cancer cells: LNCaP, ARCaPE, ARCaPM, C4-2, PC-3, HepG2, MG63, MCF-7, RCC, T-24, HeLa, K562, H358; test: uptake of MHI-148 by human cancer cells in culture (FIG. 1); type: cell-based; settings: 100 μM, two hours, T-medium with 5% fetal bovine serum, inverted microscope
Description: (§1) All the cells were cultured with 100 μM MHI-148 in basal media (T-medium with 5% fetal bovine serum and 1% antibiotics) for two hours and were imaged under an inverted microscope. These conditions are the usual conditions used here unless otherwise specified.

[8] = system: normal prostate fibroblasts, marrow stromal cells BMC, normal vascular endothelial cells VEC, mouse macrophage RAW cells; test: uptake of MHI-148 by normal human or mouse cells in culture (FIG. 1); type: cell-based; settings: 100 μM, two hours
Description: as §1

[9] = system: normal prostate epithelial cells NPE and normal human skin epithelial cells HaCaT; test: uptake of MHI-148 by normal epithelial cells in culture (FIG. 1); type: cell-based; settings: 100 μM, two hours
Description: as §1

[10] = system: human ARCaPM prostate cancer cells; test: imaging of MHI-148 tagged ARCaPM cells in test tubes (FIG. 2A); type: cell-based; settings: 1, 10 and 100 μM, incubation 2 hours, excitation 720 nm, emission 850 nm
Description: (§2) After incubation for 2 hours, cells were washed 3 times with PBS, harvested by centrifuge and imaged. One million of the MHI-148 tagged ARCaPM cells with different concentrations were injected subcutaneously in the back of the mouse and imaged at the same time (B). […] All the in vitro and in vivo imaging was performed using a Kodak multimodal-imaging system IS2000MM (Kodak) equipped with an excitation bandpass filter at 720 nm and an emission at 850 nm. Exposure time was 30 s per image. The images were analyzed using the imaging station IS2000MM software (Kodak 1D Image Analysis Software; Kodak).

[11] = system: human ARCaPM prostate cancer cells; test: imaging of MHI-148 tagged ARCaPM cells injected into mice (FIG. 2B, C); type: in vivo, mouse; settings: one million ARCaPM cells tagged with 10 uM MHI-148
Description: as §2

[12] = distribution of MHI-148 in normal mice, in vivo and ex vivo organ imaging (FIG. 3); design: species or system mouse; settings: for fluorescence of isolated liver, kidney and testis: Xenogen
Description: MHI-148 (5 nmol) was given by tail vein injection and the MHI-148 distribution followed at 2, 6, and 96 hrs. At the end of this study, mice were sacrificed at 6 or 80 hrs after MHI-148 tail vein administration. […] The isolated tissues and organs excised from mice at 6 hours and 80 hours after receiving 5 nmol MHI-148 were also imaged by the Xenogen machine and the signals were compared by fluorescence intensity.

[13] = system: subcutaneous ARCaPM, intratibial C4-2, H358 and K562 tumors; test: imaging of pre-established tumors in live mice with MHI-148 (FIG. 4); type: in vivo, mouse
Description: Subcutaneous ARCaPM and intratibial C4-2 tumors were established in live mice prior to the administration of MHI-148. The tumors measured about 0.5-1.0 cm in diameter at the time of imaging. 10 nmol of MHI-148 was given to mice through tail vein and imaged using Kodak multimodal-imaging system. Human lung (H358) and leukemia (K562) cancer cells were injected subcutaneously into one side of the shoulder of mice. When the tumors were about 1-2 cm in diameter, 10 nmol MHI-148 was given through tail vein and tumor images were taken at 96 hrs after MHI-148 administration.

[14] = system: human ARCaPE, ARCaPM, and C4-2 tumors; test: detection of multiple tumors in one mouse with MHI-148 (FIG. 5); type: in vivo; settings: 10 nmol tail vein, 96 hrs
Description: A mouse had 5 pre-established human ARCaPE, ARCaPM, and C4-2 tumors in the back by subcutaneous injection of tumor cells. Four tumors were measured with 0.2-1.0 cm in diameter and one tumor was not detectable by visualization at the time of NHI-148 administration. […] Visual and palpation techniques could only detect four tumors, while MHI-148 (10 nmol), after tail vein administration, clearly gained access to all tumors in the live mouse and allowed tumor images to be detected in all five tumors.

C4-2 tumor = test: imaging of live and necrotic intratibial C4-2 tumors with MHI-148 (FIG. 6); type: in vivo, mouse; settings: 10 nmol tail vein, imaged after 48 hrs
Description: C4-2 cells were injected into both sides of tibia of one mouse. When one tumor was developed to size with visible necrosis and the other tumor still in the fast growing phase, 10 nmol MHI-148 was given through tail vein. After 48 hrs, the mouse was imaged. […] The histopathology of the tumors was confirmed by the H/E stain (see upper right panel).

Cancer cell = test: CellTiter 96 Aqueous One Solution Cell Proliferation Assay (FIG. 7); type: cell-based; settings: different concentrations, 48 hrs, T-medium 5% FBS
Description: Cancer cell were plated in 96-well plates in T-medium containing 5% FBS with different concentrations of MHI-148 for 48 hrs of incubation. Cell numbers were measured using CellTiter 96 Aqueous One Solution Cell Proliferation Assay (Promega, Madison, Wis.).

[15] = system: spontaneously developed prostate tumor; test: imaging of spontaneous prostate tumor in TRAMP transgenic mouse with MHI-148 (FIG. 8); type: in vivo
From the text: 10 nmol of MHI-148 was given to a 46 week-old TRAMP transgenic mouse with spontaneously developed prostate tumor mass and imaged after 4 hrs after MHI-148 injection (panel A). […] Surgical dissection of this mouse confirmed […] was present (panel C).

[16] = photostability of MHI-148; type: physicochemical
[17] = system: spontaneous prostate tumor in a TRAMP mouse; test: imaging of spontaneous TRAMP prostate tumor, fresh and after fixation (FIG. 16B, C); type: in vivo; settings: TRAMP mouse spontaneous prostate tumors, FIG. 16 legend
Description: NIR imaging studies were performed to assess pharmacokinetics of the IR783 in vivo. […] This mouse was injected i.p with 0.2 μg/kg IR783 at 0 hrs. […] The dye retention in formalin fixed tissues can be as long as several weeks (data not shown).

[18] = dose 1X (imaging dose 0.2 μg/Kg), 0 day

CC1(C)C(/C=C/C=C/C=C/C=C2\N(CCCCS(=O)(=O)[O-])c3ccc4ccccc4c3C2(C)C)=[N+](CCCCS(=O)(=O)[O-])c2ccc3ccccc3c21.[Na+] [ICG, reference compound]
body weight [1, 18]: 20.43 g | body weight ([1]; dose 1X, 1 day): 20.49 g | body weight ([1]; dose 1X, 2 day): 20.51 g | body weight ([1]; dose 1X, 3 day): 21.01 g | body weight ([1]; dose 1X, 4 day): 21.43 g | body weight ([1]; dose 1X, 5 day): 22.00 g | body weight ([1]; dose 1X, 6 day): 22.34 g | body weight ([1]; dose 1X, 7 day): 22.96 g | body weight ([1]; dose 1X, 14 day): 23.87 g | body weight ([1]; dose 1X, 28 day): 25.00 g | toxicity (general reputation) [2]: nontoxic

CCCN1/C(=C/C=C2\CCCC(/C=C/C3=[N+](CCC)c4ccccc4C3(C)C)=C2Cl)C(C)(C)c2ccccc21.[I-] [IR780]
uptake of IR-780 [3]: significant uptake | uptake of IR-780 ([4]; 20 uM, 30 minutes, confocal microscope): very low uptake | uptake by normal prostate epithelial cells ([4]; data not shown): did not take up the dye | subcellular localization (ARCaPM cells; co-stained with mitochondrial tracker or lysosome tracker): co-localized with mitochondrial, lysomomal and cytoplasmic compartments | effect of BSP (organic anion transporter inhibitor) on uptake (ARCaPM cells; data not shown): blocked by BSP | dependence of uptake (ARCaPM cells; different concentrations, live-cell confocal imaging): time- and concentration-dependent uptake | tumor images [5]: clear tumor images can be detected | body weight [1, 18]: 19.00 g | body weight ([1]; dose 1X, 1 day): 19.02 g | body weight ([1]; dose 1X, 2 day): 19.71 g | body weight ([1]; dose 1X, 3 day): 20.01 g | body weight ([1]; dose 1X, 4 day): 20.32 g | body weight ([1]; dose 1X, 5 day): 20.56 g | body weight ([1]; dose 1X, 6 day): 20.97 g | body weight ([1]; dose 1X, 7 day): 21.81 g | body weight ([1]; dose 1X, 14 day): 23.56 g | body weight ([1]; dose 1X, 28 day): 24.44 g | body weight ([1]; dose 10X, 0 day): 20.71 g | body weight ([1]; dose 10X, 1 day): 20.69 g | body weight ([1]; dose 10X, 2 day): 20.70 g | body weight ([1]; dose 10X, 3 day): 21.03 g | body weight ([1]; dose 10X, 4 day): 21.24 g | body weight ([1]; dose 10X, 5 day): 21.89 g | body weight ([1]; dose 10X, 6 day): 22.00 g | body weight ([1]; dose 10X, 7 day): 22.56 g | body weight ([1]; dose 10X, 14 day): 24.00 g | body weight ([1]; dose 10X, 28 day): 24.56 g | body weight ([1]; dose 100X (20 μg/Kg), 0 day): 20.14 g | body weight ([1]; dose 100X, 1 day, zero grams means the mouse died): 0 g | body weight ([1]; dose 100X, 2 day, zero grams means the mouse died): 0 g | body weight ([1]; dose 100X, 3 day, zero grams means the mouse died): 0 g | body weight ([1]; dose 100X, 4 day, zero grams means the mouse died): 0 g | body weight ([1]; dose 100X, 5 day, zero grams means the mouse died): 0 g | body weight ([1]; dose 100X, 6 day, zero grams means the mouse died): 0 g | body weight ([1]; dose 100X, 7 day, zero grams means the mouse died): 0 g | body weight ([1]; dose 100X, 14 day, zero grams means the mouse died): 0 g | body weight ([1]; dose 100X, 28 day, zero grams means the mouse died): 0 g | uptake by normal mouse tissues [6]: failed to uptake IR780

CC1(C)C(/C=C/C2=C(Cl)C(=C/C=C3/N(CCCCCC(=O)O)c4ccccc4C3(C)C)/CCC2)=[N+](CCCCCC(=O)O)c2ccccc21.[Br-] [MHI-148]
uptake of MHI-148 [7]: significant uptake | uptake of MHI-148 [8]: failed to yield any time- or concentration-dependent uptake | uptake of MHI-148 [9]: low uptake | images of MHI-148 tagged ARCaPM cells in test tubes [10]: intense images can be readily detected | image of tagged cells injected into mouse tibia [11]: can be seen in the intratibial space | fluorescence of isolated liver, kidney and testis ([12]; 5 nmol tail vein, 6 hrs post administration): positive | fluorescence of isolated liver, kidney and testis ([12]; 5 nmol tail vein, 80 hrs post administration): void of any fluorescence signaling | time to clearance from normal organs (liver, kidney, testis, seminal vesicles) ([12]; live animals): ≤ 96 h | MHI-148 uptake by the liver and kidney ([12]; normal mice, 5 nmol tail vein, 2 and 6 hrs): can be detected | MHI-148 in live mice and dissected mouse tissues ([12]; normal mice, 5 nmol tail vein, by 96 hrs): no detectable MHI-148 | tumor images ([13]; 10 nmol tail vein, H358 and K562 images at 96 hrs): Clear tumor associated images are seen | fate in tumors versus host ([13]; 96 hrs after administration): accumulated in tumors | size of smallest tumor imaged [14]: < 2 mm^3 | tumors imaged ([14]; mouse with 5 tumors): All five tumors were imaged | uptake by live C4-2 tumor (right tibia) (C4-2 tumor): shown to uptake MHI-148 | uptake by necrotic or dead tumor cells (left side) (C4-2 tumor): failed to uptake MHI-148 | cancer cell growth (cell numbers) (Cancer cell): inhibition of cancer growth in vitro | imaging of prostate tumor mass ([15]; 46 week-old TRAMP mouse, 10 nmol, 4 hrs after injection): showed clear tumor in situ | signal in mouse without tumor ([15]; young age TRAMP mouse which harbored no tumor): no signal was detected | photostability [16]: relatively photostable | stability of dye in formalin fixation [17]: stable in formalin fixation for weeks
